The values below come from article PMC5000642 (International Journal of Molecular Sciences, 2016).

Test [1] concerns the target T1, endothelin A receptor (ETAR) (Homo sapiens, UniProt P25101).
T1 construct: gene EDNRA
T1 sequence (P25101 21-427): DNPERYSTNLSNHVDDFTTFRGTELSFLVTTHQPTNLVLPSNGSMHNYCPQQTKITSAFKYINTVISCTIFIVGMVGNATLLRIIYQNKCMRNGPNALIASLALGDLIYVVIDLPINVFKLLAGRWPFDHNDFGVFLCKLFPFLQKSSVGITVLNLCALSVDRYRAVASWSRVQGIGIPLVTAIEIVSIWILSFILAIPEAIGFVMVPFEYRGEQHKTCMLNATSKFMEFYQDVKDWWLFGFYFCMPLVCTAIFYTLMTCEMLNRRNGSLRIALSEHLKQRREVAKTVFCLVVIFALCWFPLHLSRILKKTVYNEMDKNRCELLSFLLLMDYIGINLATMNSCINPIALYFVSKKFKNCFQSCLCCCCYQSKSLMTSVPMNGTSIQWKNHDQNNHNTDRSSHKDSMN
In words: Calcium mobilization antagonist assay in HEK293/ETAR cells evoked by […] ET-1 (cell line validation). The test is classed as cell-based. (In general: Calcium assays in cells follow changes in intracellular calcium, usually with a dye or a luminescent sensor.)

Test [2] addresses T1, endothelin A receptor (ETAR). In words: Calcium mobilization (Fluo-4) antagonist assay in HEK293/ETAR cells evoked by […] ET-1; selective over ETB, A1, AT1 and PAR1 cell lines. The class given is cell-based.
Test [3] has as its target T2, proteinase-activated receptor 1 (PAR1) (Homo sapiens, UniProt P25116).
T2 construct: gene F2R; stably expressed in HEK293
T2 sequence (P25116 1-425): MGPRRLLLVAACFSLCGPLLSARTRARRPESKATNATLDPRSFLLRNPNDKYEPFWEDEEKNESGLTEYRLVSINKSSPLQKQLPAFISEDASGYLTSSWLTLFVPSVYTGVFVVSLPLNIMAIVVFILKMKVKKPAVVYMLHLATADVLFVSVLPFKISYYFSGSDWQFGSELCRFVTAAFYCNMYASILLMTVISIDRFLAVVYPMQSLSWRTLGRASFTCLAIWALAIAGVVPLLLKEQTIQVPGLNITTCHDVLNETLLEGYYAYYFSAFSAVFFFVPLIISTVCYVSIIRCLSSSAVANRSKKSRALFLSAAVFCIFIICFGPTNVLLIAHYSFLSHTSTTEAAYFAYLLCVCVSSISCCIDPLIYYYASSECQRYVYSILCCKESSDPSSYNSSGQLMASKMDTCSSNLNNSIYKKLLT
The test is described as follows: cell-based. Also noted: species or system HEK293; calcium mobilization assay in HEK293 cells stably expressing the human GPCR, agonist response. Here is the method:
To acquire the antagonist dose response, we tested the inhibitory effects of Sal A at different concentrations in the HEK293/ETAR cell line with 20 nM ET-1 stimulating. […] To omit a potential false positive, the cytotoxicity was tested in the HEK293/ETAR cell line by ATP CellTiter-Glo assay. In brief, Sal A was incubated in HEK293/ETAR cells for 30 min before luminescence signal measurement. […] The selectivity of Sal A was further assessed by calcium influx assay on 5 GPCRs. […] All cell lines were developed by standard procedures. Sal A was tested at a final concentration of 10 µM when cells were challenged with their selective agonists for antagonist identification. The selective antagonists of specific cell lines were used as positive control (Table S1). The HEK293 cell line was set up as the naïve group, and cells were challenged with 10 µM ATP as an agonist. […] The Gαq pathway is involved in ETAR activation, which increases intracellular Ca^2+. Based on this characteristic, a cell-based calcium mobilization assay has been used to study the function of GPCR and Ca^2+-permeable ion channels by measuring the changes of intracellular free Ca^2+ levels. In our previous study, recombinant ETAR in HEK293 cells was developed according to standard procedures. The utility of the cell line was validated using ETAR agonist (ET-1) and antagonist (BQ-123). […]

Where a SMILES comes first, the peptide text is derived from it. [ ]: non-standard residue; d: D form.

A word on the IC50: it is the concentration that inhibits the measured activity by half. With `CC(C)C[C@@H]1NC(=O)[C@@H](C(C)C)NC(=O)[C@@H]2CCCN2C(=O)[C@@H](CC(=O)O)NC(=O)[C@@H](Cc2c[nH]c3ccccc23)NC1=O` [BQ-123] (cyclo(L[dW][dD]P[dV])), the IC50 in test [1] came to 0.1 nM.

For `O=C(/C=C/c1ccc(O)c(O)c1/C=C/c1ccc(O)c(O)c1)O[C@H](Cc1ccc(O)c(O)c1)C(=O)O` [Sal A, Salvianolic acid A], the IC50 in test [2] is 5700 nM.

Usually EC50 stands for the concentration giving half of the maximal effect. With `CC(C)C[C@H](NC(=O)[C@H](CC(C)C)NC(=O)[C@H](Cc1ccccc1)NC(=O)[C@@H](N)CO)C(=O)N[C@@H](CCCN=C(N)N)C(=O)N[C@@H](CC(N)=O)C(=O)O` [TRAP-6], the EC50 in test [3] worked out at 890 nM.
